Earlier results on 14 compounds are cited in patent US20190274302A1, “COMPOSITIONS FOR ACTIVE TREATING AND […] DISEASES” (priority 2018, published 2019).

Where two headings read alike, the source gives them in different places.

On to `CC(=O)O` [acetic acid], for which the pH reads like this: (1 mM) 3.91; (10 mM) 3.39; (100 mM) 2.88.

Turning to `O=C1O[C@H]([C@@H](O)CO)C(O)=C1O` [ascorbic acid], the pH by setting is: (1 mM) 3.59; (10 mM) 3.04; (100 mM) 2.53.

As to `O=C(O)c1ccccc1` [benzoic acid], the pH is, setting by setting: (1 mM) 3.66; (10 mM) 3.12; (100 mM) 2.60.

On to `O=C(O)/C=C(/CC(=O)O)C(=O)O` [cis-aconitic acid], for which the pH is 3.05 (1 mM), 2.21 (10 mM) and 1.55 (100 mM).

In the case of `O=C(O)CC(O)(CC(=O)O)C(=O)O` [citric acid], the pH reads like this: (1 mM) 3.24; (10 mM) 2.62; (100 mM) 2.08.

Take `O=CO` [formic acid]: the pH (1 mM) is 3.47, the pH (10 mM) is recorded as 2.91 and the pH (100 mM) is given as 2.38.

For the compound `CC(O)C(=O)O` (stereo not drawn) [lactic acid], the pH is listed as 3.51 (1 mM), 2.96 (10 mM) and 2.44 (100 mM).

For the compound `O=C(O)CC(O)C(=O)O` (stereo not drawn) [malic acid], the pH runs as follows: (1 mM) 3.33; (10 mM) 2.74; (100 mM) 2.21.

For `O=C(O)CC(=O)O` [malonic acid], the pH by setting is: (1 mM) 3.17; (10 mM) 2.50; (100 mM) 1.94.

As to `O=C(O)C(=O)O` [oxalic acid], the pH (1 mM) is on record as 3.00, the pH (10 mM) is reported as 2.09 and the pH (100 mM) is on record as 1.31.

As for `Oc1ccccc1` [phenol], the pH (1 mM) was 6.47, the pH (10 mM) is recorded as 5.99 and the pH (100 mM) is recorded as 5.49.

For `CCC(=O)O` [propanoic acid], the pH runs as follows: (1 mM) 3.96; (10 mM) 3.44; (100 mM) 2.94.

In the case of `O=C(O)c1ccccc1O` [salicylic acid], the pH is 3.21 (1 mM), 2.57 (10 mM) and 2.02 (100 mM).

Consider `O=C(O)/C=C(\CC(=O)O)C(=O)O` [trans-aconitic acid], for which the pH is, setting by setting: (1 mM) 3.14; (10 mM) 2.48; (100 mM) 1.92.
